Test results: ChEMBL document CHEMBL1909046, “DrugMatrix in vitro pharmacology data”

Legend:
[1] = molecular target: Sodium-dependent noradrenaline transporter (Homo sapiens, UniProt P23975); experiment: DRUGMATRIX: Norepinephrine Transporter radioligand binding (ligand: [125I] RTI-55); format: cell membranes, MDCK, Membrane; settings: mdck; Not Active = under 50% inhibition at 10 µM
[2] = molecular target: Sigma non-opioid intracellular receptor 1 (Homo sapiens, UniProt Q99720); experiment: DRUGMATRIX: Sigma1 radioligand binding (ligand: [3H] Haloperidol); format: cell membranes, Jurkat, Membrane; settings: jurkat; Not Active = under 50% inhibition at 10 µM
Sequence of Sigma non-opioid intracellular receptor 1 (Q99720 whole entry): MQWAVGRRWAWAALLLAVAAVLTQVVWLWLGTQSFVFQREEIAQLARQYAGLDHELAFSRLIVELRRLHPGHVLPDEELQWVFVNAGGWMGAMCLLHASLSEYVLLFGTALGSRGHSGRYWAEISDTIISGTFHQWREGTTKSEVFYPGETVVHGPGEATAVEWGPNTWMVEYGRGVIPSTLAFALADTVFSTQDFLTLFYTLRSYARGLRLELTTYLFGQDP

Thromboxane-A synthase = molecular target: T1, Thromboxane-A synthase (Homo sapiens, UniProt P24557); experiment: biochemical; format: tissue-based, Platelet; settings: platelet;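 further: enzyme inhibition assay with PGH2 supplied as substrate; in other assays of this panel Not Active means under 50% inhibition at 10 µM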
T1 sequence (P24557 whole entry): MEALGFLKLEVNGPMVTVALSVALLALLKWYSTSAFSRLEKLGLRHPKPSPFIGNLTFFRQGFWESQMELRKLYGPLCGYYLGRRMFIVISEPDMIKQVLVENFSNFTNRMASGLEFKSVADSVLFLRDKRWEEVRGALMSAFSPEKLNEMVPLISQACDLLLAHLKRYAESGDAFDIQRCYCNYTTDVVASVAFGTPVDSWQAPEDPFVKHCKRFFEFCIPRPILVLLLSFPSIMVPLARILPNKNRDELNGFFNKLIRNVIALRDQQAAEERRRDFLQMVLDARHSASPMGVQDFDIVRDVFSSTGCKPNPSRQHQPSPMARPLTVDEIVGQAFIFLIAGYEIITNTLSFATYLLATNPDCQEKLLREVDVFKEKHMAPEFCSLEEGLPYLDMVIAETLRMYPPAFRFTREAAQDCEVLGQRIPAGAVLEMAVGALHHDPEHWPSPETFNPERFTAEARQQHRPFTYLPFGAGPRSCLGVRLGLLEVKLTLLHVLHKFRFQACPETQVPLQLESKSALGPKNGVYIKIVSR

[3] = molecular target: Voltage-gated inwardly rectifying potassium channel KCNH2 (Homo sapiens, UniProt Q12809); settings: hek293; further: in other assays of this panel Not Active means under 50% inhibition at 10 µM
Sequence of Voltage-gated inwardly rectifying potassium channel KCNH2 (Q12809 whole entry): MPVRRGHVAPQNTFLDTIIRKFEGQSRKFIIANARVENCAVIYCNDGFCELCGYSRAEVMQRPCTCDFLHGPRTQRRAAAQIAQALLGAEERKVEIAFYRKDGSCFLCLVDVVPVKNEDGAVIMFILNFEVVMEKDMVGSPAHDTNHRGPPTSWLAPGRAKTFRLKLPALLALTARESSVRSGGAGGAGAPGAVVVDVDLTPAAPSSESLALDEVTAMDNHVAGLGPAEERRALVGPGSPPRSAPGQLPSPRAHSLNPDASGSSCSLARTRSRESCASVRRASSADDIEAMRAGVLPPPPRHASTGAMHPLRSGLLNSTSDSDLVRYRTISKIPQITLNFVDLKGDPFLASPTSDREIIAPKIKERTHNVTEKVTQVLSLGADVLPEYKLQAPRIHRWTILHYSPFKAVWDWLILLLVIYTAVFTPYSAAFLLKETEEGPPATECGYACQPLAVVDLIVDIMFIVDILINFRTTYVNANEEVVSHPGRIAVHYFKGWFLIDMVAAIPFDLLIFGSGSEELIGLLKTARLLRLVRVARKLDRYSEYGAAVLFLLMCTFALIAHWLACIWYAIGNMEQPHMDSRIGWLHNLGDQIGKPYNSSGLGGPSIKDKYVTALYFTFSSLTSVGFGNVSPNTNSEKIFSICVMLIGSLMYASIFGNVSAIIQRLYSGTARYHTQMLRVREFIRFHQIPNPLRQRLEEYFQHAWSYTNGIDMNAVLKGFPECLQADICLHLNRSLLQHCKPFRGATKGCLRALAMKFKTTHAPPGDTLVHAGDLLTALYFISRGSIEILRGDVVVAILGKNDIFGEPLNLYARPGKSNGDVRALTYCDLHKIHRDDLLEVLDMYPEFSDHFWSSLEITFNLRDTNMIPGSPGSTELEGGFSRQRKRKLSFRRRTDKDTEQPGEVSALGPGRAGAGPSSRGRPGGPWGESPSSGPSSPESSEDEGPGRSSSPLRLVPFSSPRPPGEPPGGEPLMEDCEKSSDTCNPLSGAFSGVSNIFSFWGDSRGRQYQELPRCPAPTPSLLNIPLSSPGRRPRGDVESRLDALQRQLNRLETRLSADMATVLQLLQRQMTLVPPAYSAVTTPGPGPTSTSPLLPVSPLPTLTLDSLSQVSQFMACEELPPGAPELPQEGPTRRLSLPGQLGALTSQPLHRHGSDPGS

[4] = DRUGMATRIX: Atrial Natriuretic Factor (ANF) radioligand binding (ligand: [125I] ANF (rat)); format: cell membranes, Cavia porcellus, Dunkin-Hartley, Adrenal gland, Membrane; settings: Not Active = under 50% inhibition at 10 µM
[5] = molecular target: T2, Receptor-type tyrosine-protein phosphatase C (Homo sapiens, UniProt P08575); parameters: species or system Escherichia coli;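 further: inhibition of CD45 enzyme activity measured using DiFMUP as substrate; in other assays of this panel Not Active means under 50% inhibition at 10 µM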
T2 sequence (P08575 whole entry): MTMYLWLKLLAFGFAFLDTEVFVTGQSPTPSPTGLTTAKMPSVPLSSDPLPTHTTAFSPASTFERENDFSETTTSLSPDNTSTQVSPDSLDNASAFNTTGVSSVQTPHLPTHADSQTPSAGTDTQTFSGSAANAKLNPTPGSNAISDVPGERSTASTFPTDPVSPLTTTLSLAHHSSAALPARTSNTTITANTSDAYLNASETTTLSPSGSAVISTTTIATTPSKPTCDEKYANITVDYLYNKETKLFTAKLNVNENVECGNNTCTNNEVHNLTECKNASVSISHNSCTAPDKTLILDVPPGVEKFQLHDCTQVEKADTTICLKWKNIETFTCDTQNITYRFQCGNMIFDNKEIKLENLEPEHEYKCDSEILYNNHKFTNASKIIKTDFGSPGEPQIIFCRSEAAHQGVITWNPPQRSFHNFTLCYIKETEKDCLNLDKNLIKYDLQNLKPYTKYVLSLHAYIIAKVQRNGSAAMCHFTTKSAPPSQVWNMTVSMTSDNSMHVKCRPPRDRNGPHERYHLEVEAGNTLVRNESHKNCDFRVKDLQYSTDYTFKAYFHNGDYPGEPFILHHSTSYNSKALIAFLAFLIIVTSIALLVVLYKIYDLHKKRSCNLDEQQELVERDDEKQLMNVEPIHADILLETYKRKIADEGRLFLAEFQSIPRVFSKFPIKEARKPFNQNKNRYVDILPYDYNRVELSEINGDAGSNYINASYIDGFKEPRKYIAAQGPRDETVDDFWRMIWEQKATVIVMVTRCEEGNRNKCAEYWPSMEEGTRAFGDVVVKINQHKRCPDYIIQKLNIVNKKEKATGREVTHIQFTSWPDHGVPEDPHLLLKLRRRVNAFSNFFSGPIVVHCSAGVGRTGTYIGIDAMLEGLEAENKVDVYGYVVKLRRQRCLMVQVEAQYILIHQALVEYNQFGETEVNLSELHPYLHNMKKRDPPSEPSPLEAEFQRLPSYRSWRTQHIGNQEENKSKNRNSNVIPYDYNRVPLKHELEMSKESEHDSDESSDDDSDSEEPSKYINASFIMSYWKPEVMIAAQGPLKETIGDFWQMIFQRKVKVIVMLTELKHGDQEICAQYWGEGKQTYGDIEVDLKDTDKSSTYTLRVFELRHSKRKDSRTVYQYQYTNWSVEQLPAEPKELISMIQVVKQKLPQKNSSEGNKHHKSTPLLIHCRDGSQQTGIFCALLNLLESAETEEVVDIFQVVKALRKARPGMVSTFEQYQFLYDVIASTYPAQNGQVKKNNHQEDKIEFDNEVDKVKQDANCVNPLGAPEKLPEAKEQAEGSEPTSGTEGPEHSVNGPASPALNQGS

[6] = DRUGMATRIX: Glutamate, NMDA, Agonism radioligand binding (ligand: [3H] CGP-39653); format: cell membranes, Rattus norvegicus, Wistar, Cerebral cortex, Membrane; settings: Not Active = under 50% inhibition at 10 µM
[7] = molecular target: Platelet-activating factor receptor (Homo sapiens, UniProt P25105); experiment: biochemical; format: tissue-based; settings: platelet; further: in other assays of this panel Not Active means under 50% inhibition at 10 µM
Sequence of Platelet-activating factor receptor (P25105 whole entry): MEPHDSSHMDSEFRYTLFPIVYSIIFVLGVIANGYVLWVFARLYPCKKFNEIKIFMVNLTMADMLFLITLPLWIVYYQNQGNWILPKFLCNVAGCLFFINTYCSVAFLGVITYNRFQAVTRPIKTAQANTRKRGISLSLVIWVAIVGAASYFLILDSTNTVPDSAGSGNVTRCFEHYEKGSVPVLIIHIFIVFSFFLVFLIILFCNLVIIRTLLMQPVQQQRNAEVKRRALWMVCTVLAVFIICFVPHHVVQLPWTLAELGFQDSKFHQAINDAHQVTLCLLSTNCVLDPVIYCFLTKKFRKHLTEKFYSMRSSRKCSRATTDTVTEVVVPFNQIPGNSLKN

Adenosine receptor A2a = Adenosine receptor A2a (Homo sapiens, UniProt P29274); experiment: DRUGMATRIX: Adenosine A2A radioligand binding (ligand: […]); format: cell membranes, HEK293, Membrane; settings: hek293; Not Active = under 50% inhibition at 10 µM
Sequence of Adenosine receptor A2a (P29274 whole entry): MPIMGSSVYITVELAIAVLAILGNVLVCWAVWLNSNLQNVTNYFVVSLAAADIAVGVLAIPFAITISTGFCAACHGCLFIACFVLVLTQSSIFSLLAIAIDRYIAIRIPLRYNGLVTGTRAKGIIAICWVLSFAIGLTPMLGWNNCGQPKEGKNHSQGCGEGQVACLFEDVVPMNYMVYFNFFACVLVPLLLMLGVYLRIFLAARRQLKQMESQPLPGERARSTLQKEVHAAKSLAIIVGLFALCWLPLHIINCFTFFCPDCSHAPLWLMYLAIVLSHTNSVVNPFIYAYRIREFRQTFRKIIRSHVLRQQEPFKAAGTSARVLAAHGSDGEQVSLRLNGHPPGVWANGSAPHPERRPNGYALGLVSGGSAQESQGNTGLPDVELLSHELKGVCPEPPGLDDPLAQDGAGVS

[8] = molecular target: T3, 5-hydroxytryptamine receptor 2C (Homo sapiens, UniProt P28335); experiment: DRUGMATRIX: Serotonin (5-Hydroxytryptamine) 5-HT2C radioligand binding (ligand: [3H] Mesulergine); format: cell membranes, CHO-K1, Membrane; settings: cho-k1; Not Active = under 50% inhibition at 10 µM
T3 sequence (P28335 whole entry): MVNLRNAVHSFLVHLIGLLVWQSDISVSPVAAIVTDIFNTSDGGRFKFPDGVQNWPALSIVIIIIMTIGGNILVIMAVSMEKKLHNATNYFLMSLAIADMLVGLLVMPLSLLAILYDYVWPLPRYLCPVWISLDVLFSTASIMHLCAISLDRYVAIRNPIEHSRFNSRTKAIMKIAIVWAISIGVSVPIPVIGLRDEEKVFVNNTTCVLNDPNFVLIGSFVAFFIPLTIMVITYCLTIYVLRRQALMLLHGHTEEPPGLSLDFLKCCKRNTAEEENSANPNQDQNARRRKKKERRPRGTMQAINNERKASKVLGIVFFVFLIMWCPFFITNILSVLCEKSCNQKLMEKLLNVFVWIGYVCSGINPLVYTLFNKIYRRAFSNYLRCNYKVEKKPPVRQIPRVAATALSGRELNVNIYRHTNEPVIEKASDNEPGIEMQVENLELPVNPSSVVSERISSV

Sequence of Sodium-dependent noradrenaline transporter (P23975 whole entry): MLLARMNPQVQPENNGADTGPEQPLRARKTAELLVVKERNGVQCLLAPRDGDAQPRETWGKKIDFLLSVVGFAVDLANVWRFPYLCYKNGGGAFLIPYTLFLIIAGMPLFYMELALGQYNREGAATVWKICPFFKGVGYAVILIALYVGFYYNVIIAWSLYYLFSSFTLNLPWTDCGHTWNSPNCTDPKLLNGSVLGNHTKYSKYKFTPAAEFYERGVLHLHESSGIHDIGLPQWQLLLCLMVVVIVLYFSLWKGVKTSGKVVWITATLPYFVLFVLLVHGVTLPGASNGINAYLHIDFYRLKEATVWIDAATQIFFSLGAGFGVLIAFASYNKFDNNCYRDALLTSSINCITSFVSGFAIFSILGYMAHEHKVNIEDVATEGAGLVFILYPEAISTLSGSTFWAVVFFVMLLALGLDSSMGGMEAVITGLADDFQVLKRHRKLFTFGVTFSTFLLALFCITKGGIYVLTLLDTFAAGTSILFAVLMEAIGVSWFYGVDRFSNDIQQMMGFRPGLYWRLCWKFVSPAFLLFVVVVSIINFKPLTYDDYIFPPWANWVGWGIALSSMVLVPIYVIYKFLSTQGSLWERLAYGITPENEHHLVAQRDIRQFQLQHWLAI

NCC[C@H](O)C(=O)N[C@@H]1C[C@H](N)[C@@H](O[C@H]2O[C@H](CN)[C@@H](O)[C@H](O)[C@H]2O)[C@H](O)[C@H]1O[C@H]1O[C@H](CO)[C@@H](O)[C@H](N)[C@H]1O [AMIKACIN]
Not Active: IC50 [1] | IC50 [2] | IC50 (Thromboxane-A synthase) | IC50 [3] | Ki [3] | IC50 [4] | Ki [4] | IC50 [5] | IC50 [6] | Ki [6] | IC50 [7] | IC50 (Adenosine receptor A2a) | IC50 [8]

CCOC(=O)OC(C)OC1=C(C(=O)Nc2ccccn2)N(C)S(=O)(=O)c2ccccc21 (stereo unspecified) [AMPIROXICAM]
Not Active: IC50 [1] | IC50 [2] | IC50 (Thromboxane-A synthase) | IC50 [3] | Ki [3] | IC50 [4] | Ki [4] | IC50 [5] | IC50 [6] | Ki [6] | IC50 [7] | IC50 (Adenosine receptor A2a) | IC50 [8]

N#C[C@H](O[C@@H]1O[C@H](CO[C@@H]2O[C@H](CO)[C@@H](O)[C@H](O)[C@H]2O)[C@@H](O)[C@H](O)[C@H]1O)c1ccccc1 [AMYGDALIN]
Not Active: IC50 [1] | IC50 [2] | IC50 (Thromboxane-A synthase) | IC50 [3] | Ki [3] | IC50 [4] | Ki [4] | IC50 [5] | IC50 [6] | Ki [6] | IC50 [7] | IC50 (Adenosine receptor A2a) | IC50 [8]

N=C(N)NCCCCNC(=N)N.O=S(=O)(O)O [ARCAINE SULFATE]
Not Active: IC50 [1] | IC50 [2] | IC50 (Thromboxane-A synthase) | IC50 [3] | Ki [3] | IC50 [4] | Ki [4] | IC50 [5] | IC50 [6] | Ki [6] | IC50 [7] | IC50 (Adenosine receptor A2a) | IC50 [8]

C=C1[C@@H]2CCC3[C@@](CC[C@@H]4[C@H](C(=O)O)C[C@@H](O[C@@H]5O[C@H](CO)[C@@H](OS(=O)(=O)[O-])[C@H](OS(=O)(=O)[O-])[C@H]5OC(=O)CC(C)C)C[C@@]34C)(C2)[C@@H]1O.[K+].[K+] (stereo partly specified) [ATRACTYLOSIDE]
Not Active: IC50 [1] | IC50 [2] | IC50 (Thromboxane-A synthase) | IC50 [3] | Ki [3] | IC50 [4] | Ki [4] | IC50 [5] | IC50 [6] | Ki [6] | IC50 [7] | IC50 (Adenosine receptor A2a) | IC50 [8]

Cn1cnc([N+](=O)[O-])c1Sc1ncnc2nc[nH]c12 [AZATHIOPRINE]
Not Active: IC50 [1] | IC50 [2] | IC50 (Thromboxane-A synthase) | IC50 [3] | Ki [3] | IC50 [4] | Ki [4] | IC50 [5] | IC50 [6] | Ki [6] | IC50 [7] | IC50 (Adenosine receptor A2a) | IC50 [8]

CC1(C)S[C@@H]2[C@H](NC(=O)[C@H](NC(=O)N3CCNC3=O)c3ccccc3)C(=O)N2[C@H]1C(=O)O [AZLOCILLIN]
Not Active: IC50 [1] | IC50 [2] | IC50 (Thromboxane-A synthase) | IC50 [3] | Ki [3] | IC50 [4] | Ki [4] | IC50 [5] | IC50 [6] | Ki [6] | IC50 [7] | IC50 (Adenosine receptor A2a) | IC50 [8]
